Test results from patent US7105470B1, “Herbicidal compositions for tolerant or resistant soybean crops” (Hoechst Schering AgrEvo GmbH, priority 1998, dated 2006).
Where a name gives a salt, the structure may show the parent alone.

Columns and labels:
Format in all cases: in vivo
[1] = test system: Soja LL (glufosinate-tolerant soybean culture); assay: Field trial with soybeans, tolerance by crop plants
Method: (§1) Transgenic soybean plants with a resistance to one or more herbicides (A) together with typical weed plants were grown in the open on 2×5 m plots under natural field conditions; alternatively, weed infestation occurred naturally when the soybean plants were grown.
(§2) 2, 4, 6 and 8 weeks after the application, the herbicidal activity of the active substances or active substance mixtures was scored visually with reference to the treated plots in comparison to untreated control plots. The damage to, and the development of, all aerial parts of the plants was recorded. Scoring was done on the basis of a percentage sale (100% action all plants destroyed; 50% action=50% of the plants and green parts of the plants destroyed; 0% action=no recognizable effect=like control plot. The mean of the score values of in each case 4 plots was calculated.

[2] = test system: Portulaca oleracea; assay: Field trial with soybeans, herbicidal action; settings: 8–10 leaf stage, scoring 32 days after application
Method: as §1
(§3) […] The damage to, and the development of, all aerial parts of the plants was recorded. Scoring was done on the basis of a percentage sale (100% action all plants destroyed; 50% action=50% of the plants and green parts of the plants destroyed; 0% action=no recognizable effect=like control plot. The mean of the score values of in each case 4 plots was calculated.

[3] = test system: Digitalis abscendens; assay: Field trial with soybeans, herbicidal action; settings: application middle-end of stocking, scoring 3 weeks after application
Method: as §1, §3

[4] = test system: Equisetum arvense; assay: Field trial with soybeans, herbicidal action; settings: 4–6 leaf stage, scoring 3 weeks after application
Method: as §1, §3

[5] = test system: Eleusine indica; assay: Field trial with soybeans, herbicidal action; settings: 3-leaf stage, scoring 42 days after application
Method: as §1, §2

[6] = test system: Sorghum sudaneus; assay: Field trial with soybeans, herbicidal action; settings: 4-leaf stage, scoring 28 days after application
Method: as §1, §2

[7] = test system: Pharbitis purpureum; assay: Field trial with soybeans, herbicidal action; settings: 3-leaf stage, scoring 42 days after application
Method: as §1, §2

[8] = test system: Abutilon theophrasti; assay: Field trial with soybeans, herbicidal action; settings: 4-leaf stage, scoring 42 days after application
Method: as §1, §2

[9] = test system: Xanthium orientalis; assay: Field trial with soybeans, herbicidal action; settings: 5-leaf stage, scoring 28 days after application
Method: as §1, §2

[10] = test system: Sida rombifolia; assay: Field trial with soybeans, herbicidal action; settings: 4-leaf stage, scoring 43 days after application
[11] = Table 8, 50 g of a.s./ha, 4-leaf stage, scoring 43 days after application

SMILES: CP(=O)(O)CCC(N)C(=O)O (centres unmarked) [(A1.2), glufosinate-monoammonium salt]
- Herbicidal action (%) against Soja LL ([1]; Table 5, 250 g of a.s./ha, 8–10 leaf stage, scoring 32 days after application): 0%
- Herbicidal action (%) against Soja LL ([1]; Table 5, 500 g of a.s./ha, 8–10 leaf stage, scoring 32 days after application): 0%
- Herbicidal action (%) against Soja LL ([1]; Table 6, 200 g of a.s./ha, 3-leaf stage, scoring 42 days after application): 0%
- Herbicidal action (%) against Soja LL ([1]; Table 6, 500 g of a.s./ha, 3-leaf stage, scoring 42 days after application): 0%
- Herbicidal action (%) against Soja LL ([1]; Table 7, 200 g of a.s./ha, 3-leaf stage, scoring 42 days after application): 0%
- Herbicidal action (%) against Soja LL ([1]; Table 7, 400 g of a.s./ha, 3-leaf stage, scoring 42 days after application): 0%
- Herbicidal action (%) against Soja LL ([1]; Table 8, 150 g of a.s./ha, 4-leaf stage, scoring 43 days after application): 0%
- Herbicidal action (%) against Soja LL ([1]; Table 8, 300 g of a.s./ha, 4-leaf stage, scoring 43 days after application): 0%
- Herbicidal action (%) against Portulaca oleracea ([2]; 250 g of a.s./ha): 20%
- Herbicidal action (%) against Portulaca oleracea ([2]; 500 g of a.s./ha): 65%
- Herbicidal action (%) against Digitalis abscendens ([3]; 1200 g of a.s./ha): 36%
- Herbicidal action (%) against Equisetum arvense ([4]; 400 g of a.s./ha): 70%
- Herbicidal action (%) against Eleusine indica ([5]; 200 g of a.s./ha): 40%
- Herbicidal action (%) against Eleusine indica ([5]; 500 g of a.s./ha): 80%
- Herbicidal action (%) against Sorghum sudaneus ([6]; 300 g of a.s./ha): 15%
- Herbicidal action (%) against Sorghum sudaneus ([6]; 500 g of a.s./ha): 65%
- Herbicidal action (%) against Pharbitis purpureum ([7]; 200 g of a.s./ha): 35%
- Herbicidal action (%) against Pharbitis purpureum ([7]; 400 g of a.s./ha): 72%
- Herbicidal action (%) against Abutilon theophrasti ([8]; 330 g of a.s./ha): 45%
- Herbicidal action (%) against Abutilon theophrasti ([8]; 500 g of a.s./ha): 95%
- Herbicidal action (%) against Xanthium orientalis ([9]; 300 g of a.s./ha): 96%
- Herbicidal action (%) against Xanthium orientalis ([9]; 500 g of a.s./ha): 98%
- Herbicidal action (%) against Sida rombifolia ([10]; 150 g of a.s./ha): 25%
- Herbicidal action (%) against Sida rombifolia ([10]; 300 g of a.s./ha): 65%

SMILES: CCc1cnc(C2=NC(C)(C(C)C)C(=O)N2)c(C(=O)O)c1 (centres unmarked) [(A3.2), imazethapyr]
- Herbicidal action (%) against Soja LL ([1]; in vivo): 0%
- Herbicidal action (%) against Eleusine indica ([5]; 50 g of a.s./ha): 27%

SMILES: COCc1cnc(C2=NC(C)(C(C)C)C(=O)N2)c(C(=O)O)c1 (centres unmarked) [(A3.5), imazamox]
- Herbicidal action (%) against Soja LL ([1]; Table 7, 30 g of a.s./ha, 3-leaf stage, scoring 42 days after application): 0%
- Herbicidal action (%) against Pharbitis purpureum ([7]; 30 g of a.s./ha): 40%

SMILES: CCCN(CCC)c1c([N+](=O)[O-])cc(C(F)(F)F)cc1[N+](=O)[O-] [(B1.1), trifluralin]
- Herbicidal action (%) against Xanthium orientalis ([9]; 960 g of a.s./ha): 0%

SMILES: CCc1cccc(C)c1N(C(=O)CCl)C(C)COC (centres unmarked) [(B1.5), metolachlor]
- Herbicidal action (%) against Soja LL ([1]; Table 5, 2240 g of a.s./ha, 8–10 leaf stage, scoring 32 days after application): 0%
- Herbicidal action (%) against Portulaca oleracea ([2]; 2240 g of a.s./ha): 30%

SMILES: Cc1ccn2nc(S(=O)(=O)Nc3c(F)cccc3F)nc2n1 [(B1.6), flumetsulam]
- Herbicidal action (%) against Abutilon theophrasti ([8]; 35 g of a.s./ha): 52%

SMILES: COCC(C)N(C(=O)CCl)c1c(C)csc1C (centres unmarked) [(B1.7), dimethenamid]
- Herbicidal action (%) against Abutilon theophrasti ([8]; 1500 g of a.s./ha): 30%

SMILES: CCc1cccc(CC)c1N(COC)C(=O)CCl [(B1.8), alachlor]
- Herbicidal action (%) against Digitalis abscendens ([3]; 2580 g of a.s./ha): 48%

SMILES: CON(C)C(=O)Nc1ccc(Cl)c(Cl)c1 [(B1.9), linuron]
- Herbicidal action (%) against Sorghum sudaneus ([6]; 750 g of a.s./ha): 15%

SMILES: C#CCN1C(=O)COc2cc(F)c(N3C(=O)C4=C(CCCC4)C3=O)cc21 [(B1.15), flumioxazin]
- Herbicidal action (%) against Soja LL ([1]; Table 5, 100 g of a.s./ha, 8–10 leaf stage, scoring 32 days after application): 0%
- Herbicidal action (%) against Soja LL ([1]; Table 7, 12.5 g of a.s./ha, 3-leaf stage, scoring 42 days after application): 0%
- Herbicidal action (%) against Portulaca oleracea ([2]; 100 g of a.s./ha): 65%
- Herbicidal action (%) against Pharbitis purpureum ([7]; 12.5 g of a.s./ha): 30%

SMILES: CC(C)N1C(=O)c2ccccc2NS1(=O)=O [(B2.2), bentazone]
- Herbicidal action (%) against Soja LL ([1]; Table 7, 480 g of a.s./ha, 3-leaf stage, scoring 42 days after application): 0%
- Herbicidal action (%) against Pharbitis purpureum ([7]; 480 g of a.s./ha): 35%

SMILES: COC(=O)c1sccc1S(=O)(=O)NC(=O)Nc1nc(C)nc(OC)n1 [(B2.3), thifensulfuron-methyl]
- Herbicidal action (%) against Soja LL ([1]; in vivo): 3%
- Herbicidal action (%) against Portulaca oleracea ([2]; 5 g of a.s./ha): 45%
- Herbicidal action (%) against Sorghum sudaneus ([6]; 15 g of a.s./ha): 13%

SMILES: CCOC(=O)C(C)OC(=O)c1cc(Oc2ccc(C(F)(F)F)cc2Cl)ccc1[N+](=O)[O-] (centres unmarked) [(B2.5), lactofen]
- Herbicidal action (%) against Equisetum arvense ([4]; 150 g of a.s./ha): 0%
- Herbicidal action (%) against Equisetum arvense ([4]; 300 g of a.s./ha): 0%
- Herbicidal action (%) against Abutilon theophrasti ([8]; 2240 g of a.s./ha): 20%

SMILES: CCCCCOC(=O)COc1cc(N2C(=O)C3=C(CCCC3)C2=O)c(F)cc1Cl [(B2.7), flumiclorac-pentyl]
- Herbicidal action (%) against Soja LL [1, 11]: 0%
- Herbicidal action (%) against Sida rombifolia ([10]; 50 g of a.s./ha): 40%

SMILES: O=C(O)c1cc(Oc2ccc(C(F)(F)F)cc2Cl)ccc1[N+](=O)[O-] [(B2.8), acifluorfen]
- Herbicidal action (%) against Sorghum sudaneus ([6]; 360 g of a.s./ha): 15%

SMILES: COc1cc(Cl)nc(NC(=O)NS(=O)(=O)c2ccccc2C(=O)O)n1 [(B2.11), chlorimuron]
- Herbicidal action (%) against Soja LL ([1]; Table 6, 12.5 g of a.s./ha, 3-leaf stage, scoring 42 days after application): 0%
- Herbicidal action (%) against Eleusine indica ([5]; 12.5 g of a.s./ha): 5%

SMILES: CCOc1nc(F)cc2nc(S(=O)(=O)Nc3c(Cl)cccc3C(=O)OC)nn12 [(B2.12), cloransulam-methyl]
- Herbicidal action (%) against Soja LL ([1]; Table 5, 18 g of a.s./ha, 8–10 leaf stage, scoring 32 days after application): 2%
- Herbicidal action (%) against Soja LL ([1]; Table 7, 40 g of a.s./ha, 3-leaf stage, scoring 42 days after application): 0%
- Herbicidal action (%) against Portulaca oleracea ([2]; 18 g of a.s./ha): 73%
- Herbicidal action (%) against Pharbitis purpureum ([7]; 40 g of a.s./ha): 45%

SMILES: Cc1cc(C)nc(NC(=O)NS(=O)(=O)c2ccccc2C(=O)OC2COC2)n1 [(B2.15), oxasulfuron]
- Herbicidal action (%) against Soja LL [1, 11]: 0%
- Herbicidal action (%) against Sida rombifolia ([10]; 50 g of a.s./ha): 60%

SMILES: CCOC(=O)[C@@H](C)Oc1ccc(Oc2nc3ccc(Cl)cc3o2)cc1 [(B4.2), fenoxaprop-P-ethyl]
- Herbicidal action (%) against Soja LL ([1]; Table 6, 25 g of a.s./ha, 3-leaf stage, scoring 42 days after application): 0%
- Herbicidal action (%) against Soja LL ([1]; Table 6, 50 g of a.s./ha, 3-leaf stage, scoring 42 days after application): 0%
- Herbicidal action (%) against Eleusine indica ([5]; 25 g of a.s./ha): 30%
- Herbicidal action (%) against Eleusine indica ([5]; 50 g of a.s./ha): 70%
